Assay results published in article PMC9233675, “Ru(II) photocages enable precise control over enzyme activity with red light” (Nature Communications, 2022).
Numbering of substitutions follows the chain as printed.

Experiments:
[1] = target: T1, CYP1B1 S269A (Homo sapiens, UniProt Q16678, S269A)
T1 sequence (Q16678 1-543 S269A): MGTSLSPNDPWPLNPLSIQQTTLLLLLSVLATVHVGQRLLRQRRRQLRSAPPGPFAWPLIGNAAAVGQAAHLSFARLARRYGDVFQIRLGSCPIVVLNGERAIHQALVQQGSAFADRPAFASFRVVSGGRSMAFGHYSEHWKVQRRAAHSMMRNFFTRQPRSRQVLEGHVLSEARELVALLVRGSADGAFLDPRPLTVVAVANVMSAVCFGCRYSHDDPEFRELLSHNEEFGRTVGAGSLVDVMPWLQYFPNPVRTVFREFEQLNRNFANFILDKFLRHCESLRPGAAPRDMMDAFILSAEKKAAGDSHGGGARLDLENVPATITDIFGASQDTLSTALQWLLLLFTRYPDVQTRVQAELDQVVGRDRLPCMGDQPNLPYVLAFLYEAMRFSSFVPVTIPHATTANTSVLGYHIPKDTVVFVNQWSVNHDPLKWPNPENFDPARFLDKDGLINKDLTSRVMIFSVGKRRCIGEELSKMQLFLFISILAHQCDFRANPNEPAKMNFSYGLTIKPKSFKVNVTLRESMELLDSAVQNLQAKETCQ
Description: (§1) Site directed mutagenesis was used to probe the importance of specific active-site contacts identified through the structural assessment (Fig. 3a, b) and simulations. In all cases, conservative mutations were made to maintain polar or hydrophobic character and approximate size. The aromatic residues that frame the inhibitor binding site, Phe143 and Phe231, were mutated to Leu to determine the importance of the π interactions. In addition, the Ser127 residue, located in the upper corner of the active site on the B-C loop, was chosen for mutation based on the simulations. This amino acid transiently contacts the inhibitors, but also forms a hydrogen bond with Asp326 of the I-helix, and thus may impact the position of this helix with regards to the B-C loop. […] Rather than directly mutating these residues in the I-helix, neighboring residues Gln332 and Asp333 were targeted, with the hope of interrupting amino acid interactions that position the helix within the active site.
(§2) The ratio of IC50 values for the WT vs. the mutant are shown in Fig. 3c and reflects the importance of the specific contact; the log of the value is used to aid in visualization.
(§3) Cell lines were seeded onto Geltrex coated 96-well plates at 40,000 cells/well, and grown overnight in DMEM media containing 1 μg/mL tetracycline. The media was then replaced with Opti-MEM supplemented with 2% FBS and 1 μg/mL tetracycline. Compounds were serially diluted in Opti-MEM supplemented with 2% FBS and 1 μg/mL tetracycline and an equal volume of compound added to the cells (n = 3). Following a 1 h incubation, resorufin ethyl ether (REE; for CYP1B1 and 1A1) or dibenzylfluorescein (DBF; for 19A1) was added to the cells for a total concentration of 5 μM for REE and 1 μM for DBF. […] Dose–response curves were generated in Prism and normalized using the no-compound control (set as 100% activity) and the no-cell control (set as 0% activity; this value in the raw data reflects the background fluorescence of the dye alone).

[2] = target: T2, CYP1B1 F134L (Homo sapiens, UniProt Q16678, F134L)
T2 sequence (Q16678 1-543 F134L): T1 sequence (Q16678 1-543 S269A) with F134L, A269S
Description: as §1, §2, §3

[3] = target: T3, CYP1B1 S127A (Homo sapiens, UniProt Q16678, S127A)
T3 sequence (Q16678 1-543 S127A): T1 sequence (Q16678 1-543 S269A) with S127A, A269S
Description: as §1, §2, §3

[4] = target: T4, CYP1B1 Q332E (Homo sapiens, UniProt Q16678, Q332E)
T4 sequence (Q16678 1-543 Q332E): T1 sequence (Q16678 1-543 S269A) with A269S, Q332E
Description: as §1, §2, §3

[5] = target: T5, CYP1B1 D333N (Homo sapiens, UniProt Q16678, D333N)
T5 sequence (Q16678 1-543 D333N): T1 sequence (Q16678 1-543 S269A) with A269S, D333N
Description: as §1, §2, §3

O=c1cc(-c2ccccc2)oc2c1ccc1ccccc12 [ANF, α-naphthoflavone]
logSI S269A [1]: 0
logSI F134L [2]: -0.301
logSI S127A [3]: -1.15
logSI Q332E [4]: 0.906
logSI D333N [5]: 1.497
